# Measured values as given in BindingDB's records for patent US20240342186 (Boehringer Ingelheim International, 2024).
# Molecular target: Cyclic GMP-AMP synthase (Homo sapiens, UniProt Q8N884)
# Test: Biochemical (In Vitro) Assay
# Cyclic GMP-AMP synthase, sequence (Q8N884 whole entry): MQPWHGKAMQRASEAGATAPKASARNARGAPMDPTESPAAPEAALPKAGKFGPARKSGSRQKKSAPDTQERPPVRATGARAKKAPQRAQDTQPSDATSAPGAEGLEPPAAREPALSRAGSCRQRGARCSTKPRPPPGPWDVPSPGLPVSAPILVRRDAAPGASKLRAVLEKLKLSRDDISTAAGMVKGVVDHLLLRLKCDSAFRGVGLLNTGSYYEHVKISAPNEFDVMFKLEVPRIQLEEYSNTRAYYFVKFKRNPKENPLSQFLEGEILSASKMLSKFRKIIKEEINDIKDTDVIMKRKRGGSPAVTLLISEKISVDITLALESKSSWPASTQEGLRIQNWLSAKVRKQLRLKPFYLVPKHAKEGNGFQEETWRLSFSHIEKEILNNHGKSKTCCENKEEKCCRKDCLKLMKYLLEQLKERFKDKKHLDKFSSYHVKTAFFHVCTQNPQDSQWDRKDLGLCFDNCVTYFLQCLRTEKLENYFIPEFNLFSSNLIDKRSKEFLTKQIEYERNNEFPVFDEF
row,IC50 [nM],SMILES
1,9,"O=C(O)[C@@H]1C[C@H](Oc2ncc(Br)cc2N2CCOC3(COC3)C2)CN1c1nc(C(F)F)nc2c1oc1ccccc12 [US20240342186, Example 1.24]"
2,6,"CC1(C#N)CCCN(c2cc(Cl)cnc2O[C@H]2C[C@@H](C(=O)O)N(c3nc(C(F)F)nc4c3oc3ccccc34)C2)C1 (stereo partly drawn) [US20240342186, Example 1.04]"

row,SMILES,IC50 [nM]
1,"C#Cc1cnc(O[C@H]2C[C@@H](C(=O)O)N(c3nc(C(F)F)nc4c3oc3ccccc34)C2)c(N2CCOC3(COC3)C2)c1 [US20240342186, Example 1.25]",4
